Data reported in patent US10064873B2, “Compounds and compositions for treating HIV with derivatives of Betulin” (GlaxoSmithKline LLC, priority 2011, dated 2018).

Each compound was assayed on HIV NL4-3 wt (assay: MT4 antiviral assay, NL4-3 strain wild type). Details: Human immunodeficiency virus 1, NL43, MT4, read-out: EC50 NL4-3 wt (nM).
Type: cell-based, HIV-1

Row | SMILES | EC50 [nM]
1 | CC(=O)O[C@H](CNCc1cccc(Cl)c1)[C@@]12CC[C@]3(C)[C@H](CC[C@@H]4[C@@]5(C)CC[C@H](OC(=O)CC(C)(C)C(=O)O)C(C)(C)[C@@H]5CC[C@]43C)C1=C(C(C)C)C(=O)C2 [Example 39, 4-(((3aR,5aR,5bR,7aR,9S,11aR,11bR,13aS)-3a-((S)-1-Acetoxy-2-((3-chlorobenzyl)amino)ethyl)-1-isopropyl-5a,5b,8,8,11a-pentamethyl-2-oxo-3,3a,4,5,5a,5b,6,7,7a,8,9,10,11,11a,11b,12,13,13a-octadecahydro-2H-cyclopenta[a]chrysen-9-yl)oxy)-2,2-dimethyl-4-oxobutanoic acid] | 6.6
2 | CC(=O)O[C@@H](CNCc1cccc(Cl)c1)[C@@]12CC[C@]3(C)[C@H](CC[C@@H]4[C@@]5(C)CC[C@H](OC(=O)CC(C)(C)C(=O)O)C(C)(C)[C@@H]5CC[C@]43C)C1=C(C(C)C)C(=O)C2 [Example 40, 4-(((3aR,5aR,5bR,7aR,9S,11aR,11bR,13aS)-3a-((R)-1-Acetoxy-2-((3-chlorobenzyl)amino)ethyl)-1-isopropyl-5a,5b,8,8,11a-pentamethyl-2-oxo-3,3a,4,5,5a,5b,6,7,7a,8,9,10,11,11a,11b,12,13,13a-octadecahydro-2H-cyclopenta[a]chrysen-9-yl)oxy)-2,2-dimethyl-4-oxobutanoic acid] | 11.1
3 | CCN(Cc1ccccc1Cl)C[C@H](O)[C@@]12CC[C@]3(C)[C@H](CC[C@@H]4[C@@]5(C)CC[C@H](OC(=O)CC(C)(C)C(=O)O)C(C)(C)[C@@H]5CC[C@]43C)C1=C(C(C)C)C(=O)C2 [Example 49, 4-(((3aR,5aR,5bR,7aR,9S,11aR,11bR,13aS)-3a-((R)-2-((2-chlorobenzyl)(ethyl)amino)-1-hydroxyethyl)-1-isopropyl-5a,5b,8,8,11a-pentamethyl-2-oxo-3,3a,4,5,5a,5b,6,7,7a,8,9,10,11,11a,11b,12,13,13a-octadecahydro-2H-cyclopenta[a]chrysen-9-yl)oxy)-2,2-dimethyl-4-oxobutanoic acid] | 21.8
4 | CC(C)C1=C2[C@H]3CC[C@@H]4[C@@]5(C)CC[C@H](OC(=O)CC(C)(C)C(=O)O)C(C)(C)[C@@H]5CC[C@@]4(C)[C@]3(C)CC[C@@]2([C@H]2CN(C3(c4ncc(Cl)cn4)CC3)C(=O)O2)CC1=O [Example 60, 4-(((3aR,5aR,5bR,7aR,9S,11aR,11bR,13aS)-3a-((S)-3-(1-(5-chloropyrimidin-2-yl)cyclopropyl)-2-oxooxazolidin-5-yl)-1-isopropyl-5a,5b,8,8,11a-pentamethyl-2-oxo-3,3a,4,5,5a,5b,6,7,7a,8,9,10,11,11a,11b,12,13,13a-octadecahydro-2H-cyclopenta[a]chrysen-9-yl)oxy)-2,2-dimethyl-4-oxobutanoic acid] | 60.2
5 | CC(C)C1=C2[C@H]3CC[C@@H]4[C@@]5(C)CC[C@H](OC(=O)CC(C)(C)C(=O)O)C(C)(C)[C@@H]5CC[C@@]4(C)[C@]3(C)CC[C@@]2([C@@H]2CN(C3(c4ncc(Cl)cn4)CC3)C(=O)O2)CC1=O [Example 61, 4-(((3aR,5aR,5bR,7aR,9S,11aR,11bR,13aS)-3a-((R)-3-(1-(5-chloropyrimidin-2-yl)cyclopropyl)-2-oxooxazolidin-5-yl)-1-isopropyl-5a,5b,8,8,11a-pentamethyl-2-oxo-3,3a,4,5,5a,5b,6,7,7a,8,9,10,11,11a,11b,12,13,13a-octadecahydro-2H-cyclopenta[a]chrysen-9-yl)oxy)-2,2-dimethyl-4-oxobutanoic acid] | 130

Same assay, conditions: Human immunodeficiency virus 1, NL43; MT4 cells; read-out: EC50 NL4-3 wt

Row | SMILES | EC50 [nM]
6 | CC(C)C1=C2[C@H]3CC[C@@H]4[C@@]5(C)CC[C@H](OC(=O)CC(C)(C)C(=O)O)C(C)(C)[C@@H]5CC[C@@]4(C)[C@]3(C)CC[C@@]2([C@H](O)CN(CCN(C)C)Cc2cccc(Cl)c2)CC1=O [Example 44, 4-(((3aR,5aR,5bR,7aR,9S,11aR,11bR,13aS)-3a-((S)-2-((3-Chlorobenzyl)(2-(dimethylamino)ethyl)amino)-1-hydroxyethyl)-1-isopropyl-5a,5b,8,8,11a-pentamethyl-2-oxo-3,3a,4,5,5a,5b,6,7,7a,8,9,10,11,11a,11b,12,13,13a-octadecahydro-2H-cyclopenta[a]chrysen-9-yl)oxy)-2,2-dimethyl-4-oxobutanoic acid] | 1.8
7 | CC(C)C1=C2[C@H]3CC[C@@H]4[C@@]5(C)CC[C@H](OC(=O)CC(C)(C)C(=O)O)C(C)(C)[C@@H]5CC[C@@]4(C)[C@]3(C)CC[C@@]2([C@@H](O)CN(CCN(C)C)Cc2cccc(Cl)c2)CC1=O [Example 45, 4-(((3aR,5aR,5bR,7aR,9S,11aR,11bR,13aS)-3a-((R)-2-((3-Chlorobenzyl)(2-(dimethylamino)ethyl)amino)-1-hydroxyethyl)-1-isopropyl-5a,5b,8,8,11a-pentamethyl-2-oxo-3,3a,4,5,5a,5b,6,7,7a,8,9,10,11,11a,11b,12,13,13a-octadecahydro-2H-cyclopenta[a]chrysen-9-yl)oxy)-2,2-dimethyl-4-oxobutanoic acid] | 1.9
8 | CC(=O)N(Cc1cccc(Cl)c1)C[C@@H](O)[C@@]12CC[C@]3(C)[C@H](CC[C@@H]4[C@@]5(C)CC[C@H](OC(=O)CC(C)(C)C(=O)O)C(C)(C)[C@@H]5CC[C@]43C)C1=C(C(C)C)C(=O)C2 [Example 47, 4-(((3aR,5aR,5bR,7aR,9S,11aR,11bR,13aS)-3a-((S)-2-(N-(3-chlorobenzyl)acetamido)-1-hydroxyethyl)-1-isopropyl-5a,5b,8,8,11a-pentamethyl-2-oxo-3,3a,4,5,5a,5b,6,7,7a,8,9,10,11,11a,11b,12,13,13a-octadecahydro-2H-cyclopenta[a]chrysen-9-yl)oxy)-2,2-dimethyl-4-oxobutanoic acid] | 7.7
9 | CC(C)C1=C2[C@H]3CC[C@@H]4[C@@]5(C)CC[C@H](OC(=O)CC(C)(C)C(=O)O)C(C)(C)[C@@H]5CC[C@@]4(C)[C@]3(C)CC[C@@]2([C@@H](O)CN(CCN(C)C)Cc2ccccc2Cl)CC1=O [Example 50, 4-(((3aR,5aR,5bR,7aR,9S,11aR,11bR,13aS)-3a-((R)-2-((2-chlorobenzyl)(2-(dimethylamino)ethyl)amino)-1-hydroxyethyl)-1-isopropyl-5a,5b,8,8,11a-pentamethyl-2-oxo-3,3a,4,5,5a,5b,6,7,7a,8,9,10,11,11a,11b,12,13,13a-octadecahydro-2H-cyclopenta[a]chrysen-9-yl)oxy)-2,2-dimethyl-4-oxobutanoic acid] | 1.1
10 | CC(=O)O[C@@H](CNCc1ccccc1)[C@@]12CC[C@]3(C)[C@H](CC[C@@H]4[C@@]5(C)CC[C@H](OC(=O)CC(C)(C)C(=O)O)C(C)(C)[C@@H]5CC[C@]43C)C1=C(C(C)C)C(=O)C2 [Example 52, 4-(((3aR,5aR,5bR,7aR,9S,11aR,11bR,13aS)-3a-((R)-1-Acetoxy-2-(benzylamino)ethyl)-1-isopropyl-5a,5b,8,8,11a-pentamethyl-2-oxo-3,3a,4,5,5a,5b,6,7,7a,8,9,10,11,11a,11b,12,13,13a-octadecahydro-2H-cyclopenta[a]chrysen-9-yl)oxy)-2,2-dimethyl-4-oxobutanoic acid] | 4.6
11 | CC(C)C1=C2[C@H]3CC[C@@H]4[C@@]5(C)CC[C@H](OC(=O)CC(C)(C)C(=O)O)C(C)(C)[C@@H]5CC[C@@]4(C)[C@]3(C)CC[C@@]2([C@@H](O)CN2CCc3ccccc3C2)CC1=O [Example 63, 4-(((3aR,5aR,5bR,7aR,9S,11aR,11bR,13aS)-3a-((R)-2-(3,4-dihydroisoquinolin-2(1H)-yl)-1-hydroxyethyl)-1-isopropyl-5a,5b,8,8,11a-pentamethyl-2-oxo-3,3a,4,5,5a,5b,6,7,7a,8,9,10,11,11a,11b,12,13,13a-octadecahydro-2H-cyclopenta[a]chrysen-9-yl)oxy)-2,2-dimethyl-4-oxobutanoic acid] | 3.2
12 | CC(C)C1=C2[C@H]3CC[C@@H]4[C@@]5(C)CC[C@H](OC(=O)CC(C)(C)C(=O)O)C(C)(C)[C@@H]5CC[C@@]4(C)[C@]3(C)CC[C@@]2([C@H](O)CN2CCc3ccccc3C2)CC1=O [Example 64, 4-(((3aR,5aR,5bR,7aR,9S,11aR,11bR,13aS)-3a-((S)-2-(3,4-dihydroisoquinolin-2(1H)-yl)-1-hydroxyethyl)-1-isopropyl-5a,5b,8,8,11a-pentamethyl-2-oxo-3,3a,4,5,5a,5b,6,7,7a,8,9,10,11,11a,11b,12,13,13a-octadecahydro-2H-cyclopenta[a]chrysen-9-yl)oxy)-2,2-dimethyl-4-oxobutanoic acid] | 7.2
13 | CC(C)C1=C2[C@H]3CC[C@@H]4[C@@]5(C)CC[C@H](OC(=O)CC(C)(C)C(=O)O)C(C)(C)[C@@H]5CC[C@@]4(C)[C@]3(C)CC[C@@]2(CCNCc2ccc(Cl)cc2)CC1 [Example 66, 4-(((3aR,5aR,5bR,7aR,9S,11aR,11bR,13aS)-3a-(2-((4-chlorobenzyl)amino)ethyl)-1-isopropyl-5a,5b,8,8,11a-pentamethyl-3,3a,4,5,5a,5b,6,7,7a,8,9,10,11,11a,11b,12,13,13a-octadecahydro-2H-cyclopenta[a]chrysen-9-yl)oxy)-2,2-dimethyl-4-oxobutanoic acid] | 9.2
14 | CC(C)C1=C2[C@H]3CC[C@@H]4[C@@]5(C)CC[C@H](OC(=O)CC(C)(C)C(=O)O)C(C)(C)[C@@H]5CC[C@@]4(C)[C@]3(C)CC[C@@]2([C@H](O)CNCC2CCCCC2)CC1 [Example 67, 4-(((3aS,5aR,5bR,7aR,9S,11aR,11bR,13aS)-3a-((S)-2-((cyclohexylmethyl)amino)-1-hydroxyethyl)-1-isopropyl-5a,5b,8,8,11a-pentamethyl-3,3a,4,5,5a,5b,6,7,7a,8,9,10,11,11a,11b,12,13,13a-octadecahydro-2H-cyclopenta[a]chrysen-9-yl)oxy)-2,2-dimethyl-4-oxobutanoic acid] | 136
15 | CC(C)C1=C2[C@H]3CC[C@@H]4[C@@]5(C)CC[C@H](OC(=O)CC(C)(C)C(=O)O)C(C)(C)[C@@H]5CC[C@@]4(C)[C@]3(C)CC[C@@]2([C@H](O)CNC2CCCCC2)CC1=O [Example 68, 4-(((3aR,5aR,5bR,7aR,9S,11aR,11bR,13aS)-3a-((S)-2-(cyclohexylamino)-1-hydroxyethyl)-1-isopropyl-5a,5b,8,8,11a-pentamethyl-2-oxo-3,3a,4,5,5a,5b,6,7,7a,8,9,10,11,11a,11b,12,13,13a-octadecahydro-2H-cyclopenta[a]chrysen-9-yl)oxy)-2,2-dimethyl-4-oxobutanoic acid] | 10.5
